Experiment [1] relates to Escherichia coli ATCC 25922. Put plainly: Minimum inhibitory concentration (MIC), CLSI broth micro-dilution, E. coli. In kind it is cell-based. Conditions: Escherichia coli, ATCC25922, 22 h, Table 6, cation adjusted Mueller Hinton Broth + 0.002% Tween-80, 35° C. In a few lines:
(§1)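 Antibacterial potency is measured as MIC by the CLSI broth dilution method. Bacteria at OD600 0.0005 in Tween-80-supplemented cation-adjusted Mueller Hinton broth face ten twofold compound dilutions for 22 h at 35° C.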
(In general: In broth dilution the organism is exposed to a series of concentrations in liquid medium.)

Experiment [2] deals with Methicillin Resistant Staphylococcus aureus strain USA 200. Description: Minimum inhibitory concentration (MIC), CLSI broth micro-dilution, S. aureus. In kind it is cell-based. Conditions: Staphylococcus aureus, MRSA / USA200; Table 6; MRSA USA 200; cation adjusted Mueller Hinton Broth + 0.002% Tween-80; 35° C., 22 hours. In a few lines: as §1

As a reminder, the MIC is the smallest concentration in the dilution series that meets the test's criterion for growth inhibition. Consider `Cc1nc(C(F)(F)c2ccc(C(C)(C)C)cc2)nc(C)c1C(=O)N[C@@H](CCN)C(=O)N(C)[C@@H]1C(=O)N[C@@H](C)C(=O)N[C@H](C(=O)NCC#N)Cc2ccc(OCCN)c(c2)-c2cc1ccc2OCCN` (racemic) [Compound 289, rac-(8S,11S,14S)-3,18-bis(2-aminoethoxy)-N-(cyanomethyl)-11-methyl-14-[methyl-[rac-(2S)-4-amino-2-[[2-[(4-tert-butylphenyl)-difluoro-methyl]-4,6-dimethyl-pyrimidine-5-carbonyl]amino]butanoyl]amino]-10,13-dioxo-9,12-diazatricyclo[13.3.1.12,6]icosa-1(18),2(20),3,5,15(19),16-hexaene-8-carboxamide], for which the MIC came to 0.75 µM in experiment [1] and 0.016 µM in experiment [2].

For `Cc1nc(-c2ccc3c(c2)CCOC3(C)C)nc(C)c1C(=O)N[C@@H](CCN)C(=O)N(C)[C@@H]1C(=O)N[C@@H](C)C(=O)N[C@H](C(=O)NCC#N)Cc2ccc(OCCN)c(c2)-c2cc1ccc2OCCN` (racemic) [Compound 290, rac-(8S,11S,14S)-3,18-bis(2-aminoethoxy)-N-(cyanomethyl)-11-methyl-14-[methyl-[rac-(2S)-4-amino-2-[[2-(1,1-dimethylisochroman-6-yl)-4,6-dimethyl-pyrimidine-5-carbonyl]amino]butanoyl]amino]-10,13-dioxo-9,12-diazatricyclo[13.3.1.12,6]icosa-1(18),2(20),3,5,15(19),16-hexaene-8-carboxamide], the MIC was found to be 0.75 µM in experiment [1] and 0.19 µM in experiment [2].

`CCCC(F)(F)c1ccc(-c2nc(C)c(C(=O)N[C@@H](CCN)C(=O)N(C)[C@@H]3C(=O)N[C@@H](C)C(=O)N[C@H](C(=O)NCC#N)Cc4ccc(OCCN)c(c4)-c4cc3ccc4OCCN)c(C)n2)cc1` (racemic) [Compound 294, rac-(8S,11S,14S)-3,18-bis(2-aminoethoxy)-N-(cyanomethyl)-11-methyl-14-[methyl-[rac-(2S)-4-amino-2-[[2-[4-(1,1-difluorobutyl)phenyl]-4,6-dimethyl-pyrimidine-5-carbonyl]amino]butanoyl]amino]-10,13-dioxo-9,12-diazatricyclo[13.3.1.12,6]icosa-1(18),2(20),3,5,15(19),16-hexaene-8-carboxamide]: the MIC is 0.19 µM in experiment [1] and 0.031 µM in experiment [2].

As for `Cc1nc(C2=CCC(C(C)(C)C)CC2)nc(C)c1C(=O)N[C@@H](CCN)C(=O)N(C)[C@@H]1C(=O)N[C@@H](C)C(=O)N[C@H](C(=O)NCC#N)Cc2ccc(OCCN)c(c2)-c2cc1ccc2OCCN` (mixture of isomers) [Compound 295, rac-(8S,11S,14S)-3,18-bis(2-aminoethoxy)-N-(cyanomethyl)-11-methyl-14-[methyl-[rac-(2S)-4-amino-2-[[2-(4-tert-butylcyclohexen-1-yl)-4,6-dimethyl-pyrimidine-5-carbonyl]amino]butanoyl]amino]-10,13-dioxo-9,12-diazatricyclo[13.3.1.12,6]icosa-1(18),2(20),3,5,15(19),16-hexaene-8-carboxamide], the MIC in experiment [1] came out at 0.063 µM; in experiment [2], 0.0078 µM.

For the compound `Cc1nc(-c2ccc(C(C)(C)C)cc2O)nc(C)c1C(=O)N[C@@H](CCN)C(=O)N(C)[C@@H]1C(=O)N[C@@H](C)C(=O)N[C@H](C(=O)NCC#N)Cc2ccc(OCCN)c(c2)-c2cc1ccc2OCCN` (racemic) [Compound 298, rac-(8S,11S,14S)-3,18-bis(2-aminoethoxy)-N-(cyanomethyl)-11-methyl-14-[methyl-[rac-(2S)-4-amino-2-[[2-(4-tert-butyl-2-hydroxy-phenyl)-4,6-dimethyl-pyrimidine-5-carbonyl]amino]butanoyl]amino]-10,13-dioxo-9,12-diazatricyclo[13.3.1.12,6]icosa-1(18),2(20),3,5,15(19),16-hexaene-8-carboxamide], the MIC in experiment [1] was 0.13 µM; in experiment [2], 0.016 µM.

On to `Cc1nc(-c2ccc(C3CC3)cc2)nc(C)c1C(=O)N[C@@H](CCN)C(=O)N(C)[C@@H]1C(=O)N[C@@H](C)C(=O)N[C@H](C(=O)NCC#N)Cc2ccc(OCCN)c(c2)-c2cc1ccc2OCCN` (racemic) [Compound 300, rac-(8S,11S,14S)-3,18-bis(2-aminoethoxy)-N-(cyanomethyl)-11-methyl-14-[methyl-[rac-(2S)-4-amino-2-[[2-(4-cyclopropylphenyl)-4,6-dimethyl-pyrimidine-5-carbonyl]amino]butanoyl]amino]-10,13-dioxo-9,12-diazatricyclo[13.3.1.12,6]icosa-1(18),2(20),3,5,15(19),16-hexaene-8-carboxamide], for which the MIC in experiment [1] came out at 0.25 µM; in experiment [2], 0.031 µM.

As to `Cc1nc(-c2ccc(C3CCC3)cc2)nc(C)c1C(=O)N[C@@H](CCN)C(=O)N(C)[C@@H]1C(=O)N[C@@H](C)C(=O)N[C@H](C(=O)NCC#N)Cc2ccc(OCCN)c(c2)-c2cc1ccc2OCCN` (racemic) [Compound 301, rac-(8S,11S,14S)-3,18-bis(2-aminoethoxy)-N-(cyanomethyl)-11-methyl-14-[methyl-[rac-(2S)-4-amino-2-[[2-(4-cyclobutylphenyl)-4,6-dimethyl-pyrimidine-5-carbonyl]amino]butanoyl]amino]-10,13-dioxo-9,12-diazatricyclo[13.3.1.12,6]icosa-1(18),2(20),3,5,15(19),16-hexaene-8-carboxamide], the MIC in experiment [1] turned out to be 0.094 µM; in experiment [2], 0.016 µM.

For the compound `Cc1nc(C#CC(C)(C)C)nc(C)c1C(=O)N[C@@H](CCN)C(=O)N(C)[C@@H]1C(=O)N[C@@H](C)C(=O)N[C@H](C(=O)NCC#N)Cc2ccc(OCCN)c(c2)-c2cc1ccc2OCCN` (racemic) [Compound 306, rac-(8S,11S,14S)-3,18-bis(2-aminoethoxy)-N-(cyanomethyl)-11-methyl-14-[methyl-[rac-(2S)-4-amino-2-[[2-(3,3-dimethylbut-1-ynyl)-4,6-dimethyl-pyrimidine-5-carbonyl]amino]butanoyl]amino]-10,13-dioxo-9,12-diazatricyclo[13.3.1.12,6]icosa-1(18),2(20),3,5,15(19),16-hexaene-8-carboxamide], the MIC in experiment [1] amounted to 14 µM; in experiment [2], 0.84 µM.

Regarding `CCc1ccc(C#Cc2nc(C)c(C(=O)N[C@@H](CCN)C(=O)N(C)[C@@H]3C(=O)N[C@@H](C)C(=O)N[C@H](C(=O)NCC#N)Cc4ccc(OCCN)c(c4)-c4cc3ccc4OCCN)c(C)n2)cc1` (racemic) [Compound 307, rac-(8S,11S,14S)-3,18-bis(2-aminoethoxy)-N-(cyanomethyl)-11-methyl-14-[methyl-[rac-(2S)-4-amino-2-[[2-[2-(4-ethylphenyl)ethynyl]-4,6-dimethyl-pyrimidine-5-carbonyl]amino]butanoyl]amino]-10,13-dioxo-9,12-diazatricyclo[13.3.1.12,6]icosa-1(18),2(20),3,5,15(19),16-hexaene-8-carboxamide], the MIC came to 0.2 µM in experiment [1] and 0.033 µM in experiment [2].

These data come from patent US20260274892A1, “MACROCYCLIC BROAD SPECTRUM ANTIBIOTICS” (RQx Pharmaceuticals, Inc., priority 2017, published 2026).
